US8188098B2, “GPR119 receptor agonists” (Hoffmann-La Roche Inc., priority 2008, dated 2012)

How the values were obtained:
[1] = target: T1, GPR119 receptor (Mesocricetus auratus, UniProt A0A1U8CD06); test: cAMP assay in HIT-T15 hamster pancreatic islet cells (functional agonist activity); format: cell-based; conditions: HIT-T15 cells endogenously expressing GPR119; 30 min at 25° C.; intracellular cAMP
T1 construct: which endogenously express the GPR119 receptor; host or cells: HIT-T15 hamster pancreatic islet cells
T1 sequence (A0A1U8CD06 1-334): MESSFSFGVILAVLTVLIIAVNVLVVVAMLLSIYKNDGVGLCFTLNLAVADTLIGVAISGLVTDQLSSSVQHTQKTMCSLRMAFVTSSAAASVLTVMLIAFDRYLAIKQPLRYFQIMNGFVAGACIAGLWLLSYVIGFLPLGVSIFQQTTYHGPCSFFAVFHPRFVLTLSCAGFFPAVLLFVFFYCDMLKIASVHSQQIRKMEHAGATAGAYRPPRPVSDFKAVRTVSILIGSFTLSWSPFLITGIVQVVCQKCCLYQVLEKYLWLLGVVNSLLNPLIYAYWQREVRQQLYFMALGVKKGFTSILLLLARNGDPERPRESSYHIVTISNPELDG
Summary of the method: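 cAMP immunoassay with luminescent read-out, EC50 fitted, after a 30 min, 25° C agonist incubation in HIT-T15 hamster islet cells expressing GPR119 natively. Medium contained 0.5 mM IBMX and 0.5 mg/ml BSA; 9000 cells/well.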

[2] = tested on: C57B1/6J mice; test: oral glucose tolerance test (OGTT) in C57B1/6J mice; format: in vivo; conditions: 30 mg/kg oral gavage, 2 g/kg glucose bolus two hours after dosing; vs vehicle treated mice
Procedure: The in vivo activity of selected compounds of the invention was characterized using an oral glucose tolerance test in C57B1/6J mice.
C57B1/6J mice were obtained from Jackson Laboratory (Bar Harbor, Me.) and were maintained in a light-dark cycle with lights on from 0600-1800 hr. The mice were received at age nine weeks and given ad libitum access to diet (LabDiet 5001 chow, PMI Nutrition, Brentwood, Mo.), and were at age 10 weeks at the time of study The experiments were conducted during the light phase of the light-dark cycle. Mice (n=10) were weighed and fasted for a four hour period prior to treatment with GPR119 agonists or formulation vehicle via oral gavage. GPR119 agonists were formulated in Klucel vehicle (2% Klucel LF with 0.1% Tween 80, in water) at a concentration of 4.0 mg/mL and the mice were dosed with a 7.5 mL/kg volume to equal a 30 mg/kg dose. Two hours following dosing, the animals were given an oral glucose tolerance test (OGTT). For the OGTT, the animals were given a 2 g/kg glucose bolus via oral gavage. Blood glucose readings were made immediately prior to the glucose challenge, and 30, 60 and 120 minutes following. […] Area under the curve (AUC) for plots of blood glucose vs. time for the individual mice was calculated by the trapezoidal method. […]

EC50 [1]: 0.26 µM
SMILES: CC(C)OC(=O)N1CCC(n2ncc3c(Oc4ccc(S(C)(=O)=O)cc4)ncnc32)CC1 [Example 21, 4-[4-(4-Methanesulfonyl-phenoxy)-pyrazolo[3,4-d]pyrimidin-1-yl]-piperidine-1-carboxylic acid isopropyl ester]
decrease in mean baseline-subtracted AUC (blood glucose vs. time) [2]: 44%
